Experimental data as given in patent US20220315908A1, “NOVEL GARDNERELLA ENDOLYSINS AND USES THEREOF” (priority 2019, published 2022).
In brackets after ≈: the same amount, converted by molar mass.

System: G. piotii (Gv_17)
Assay: MIC and MBC microbroth dilution
Assay type: cell-based, Gardnerella piotii
Details: for MIC / MBC: Gardnerella piotii; for MIC: 48 h
Description: One of the main deficiencies in the treatment of BV is the high rate of recurrence in many women, which leads to repeated administration of antibiotics and concomitant destabilization of the microbiome and other side effects. The minimal inhibitory concentration (MIC) and minimal bactericidal concentration (MBC) on Gardnerella cells of the strains also used for the endolysin activity assays were then measured using the method described in Reference Example 6 and 7. […] Essentially, Gardnerella suspensions at 2.5×10^7 CFU/ml were incubated with the concentration of antibiotics as indicated and incubated for 48 h at 37° C. under anaerobic conditions. […] OD(610) was measured at the beginning and the end of the experiment. At the end of the experiment, 2 ul of each reaction mix was spotted on agar to determine the MBC.
The conditions under which MIC and MBC were measured are more rigorous than the standard.
Bacteria were plated from cryo stock on BD Choc Agar plates (Gardnerella) and incubated at 37° C. for 48 h under anaerobic conditions. Colonies were scraped from the plate, resuspended in Hardy Broth or NYC-III-HS-pH 5.0, and the suspension adjusted to OD (610 or 620 nm as indicated) 0.05. It has to be noted that two Tecan Microplate readers, having respectively a 610 nm or 620 nm filter, have been used interchangeably in the experiments. Although it doesn't make any difference for the experiments, the exact wavelength used is specified in each example. Antibiotics were prepared as 20× stocks for each of the required final concentrations. 95 μl of cell suspension was mixed with 5 μl antibiotics dilution in a 384-well plate. OD (610-620 as indicated) at the start of the reaction was measured, then the plate was incubated at 37° C. for 48 h under anaerobic conditions. After that, the OD (610-620 as indicated) was measured again for MIC determination, where MIC was defined as the lowest concentration of antibiotic where the OD (610-620 as indicated) was not above the level measured at the beginning of the experiment. After measuring OD, 2 μl of each well were spotted on a NYC-III+HS Agar plate. The plates were then incubated for further 48 h at 37° C. under anaerobic conditions. After incubation, cell growth on each spot was evaluated, and the MBC defined as the lowest concentration of antibiotics where no bacteria grew on the plate. The experiments were conducted in triplicate for each condition. In the second round of MIC and MBC experiments with antibiotics the Gardnerella cell suspension was adjusted to the McFarland standard 0.5 (approximately OD (610) 0.07) and then diluted 1:75 according to the CLSI (Clinical and Laboratory Standards Institute) standards. Antibiotics were prepared according to the CLSI standards and 50 μl of cell suspension was mixed in a 96-well plate with 50 μl antibiotics. Otherwise the MIC and MBC was determined as described above. For the MIC and MBC determination of the domain swapped endolysin H2B10 50 μl of Gardnerella cell suspension was mixed in a 96-well plate with 50 μl of H2B10 containing solution, which where serially diluted 1:1. OD610 at the start of the reaction was measured, then the plate was incubated at 37° C. for 48 h under anaerobic conditions. After that, the OD(610) was measured again for MIC determination, where MIC was defined as the lowest concentration of H2B10 where the OD was not or only slightly above the level measured at the beginning of the experiment.

Cc1ncc([N+](=O)[O-])n1CCO [Metronidazole]
MIC (first round: […]10^7 CFU/ml, Hardy broth, 384-well, 48 h 37° C. anaerobic): 64 µg/mL (≈ 374 µM)
MIC (second round: 1×10^5-1×10^6 CFU/ml (CLSI), NYC-III broth, 96-well, 48 h anaerobic): 16 µg/mL (≈ 93.5 µM)
MBC (first round: […]10^7 CFU/ml, minimal concentration fully eradicating the suspension): > 128 µg/mL
MBC (second round: 1×10^5-1×10^6 CFU/ml (CLSI), NYC-III broth, 96-well): 64 µg/mL (≈ 374 µM)
resistance class of MIC, Metronidazole (first round): R (>=32 μg/mi for Metronidazole)
resistance class given with MBC, Metronidazole (second round): R (>=32 μg/mi for Metronidazole)
